Experimental data as given in the NIST ThermoML archive (doi:10.1016/j.jct.2004.06.001).

Experiment: mn = molality of the nth substance listed, in mol/kg
Settings: Liquid

[I-].[Li+] [lithium iodide] + O
Settings | mass density [kg/m3]
296.95 K, 2530 kPa, m1 = 1.605 | 1145.62
296.95 K, 7845 kPa, m1 = 1.605 | 1148.05
296.95 K, 17808 kPa, m1 = 1.605 | 1152.57
296.95 K, 25811 kPa, m1 = 1.605 | 1156.03
297.35 K, 2354 kPa, m1 = 0.6621 | 1061.06
297.35 K, 12415 kPa, m1 = 0.6621 | 1065.64
297.35 K, 21241 kPa, m1 = 0.6621 | 1069.52
297.35 K, 29243 kPa, m1 = 0.6621 | 1072.92
298.15 K, 101.33 kPa, m1 = 0.0906 | 1005.8
298.15 K, 101.33 kPa, m1 = 0.2832 | 1024.34
298.15 K, 101.33 kPa, m1 = 0.6621 | 1059.93
298.15 K, 101.33 kPa, m1 = 1.605 | 1144.13
298.15 K, 101.33 kPa, m1 = 3.089 | 1266.24
308.15 K, 101.33 kPa, m1 = 0.0906 | 1002.8
308.15 K, 101.33 kPa, m1 = 0.2832 | 1021.1
308.15 K, 101.33 kPa, m1 = 0.6621 | 1056.4
308.15 K, 101.33 kPa, m1 = 1.605 | 1139.99
308.15 K, 101.33 kPa, m1 = 3.089 | 1261.08
310.65 K, 2040 kPa, m1 = 3.089 | 1260.87
310.65 K, 17475 kPa, m1 = 3.089 | 1267.92
310.65 K, 24026 kPa, m1 = 3.089 | 1270.75
313 K, 3020 kPa, m1 = 0.2832 | 1020.66
313 K, 10866 kPa, m1 = 0.2832 | 1024.09
313 K, 21163 kPa, m1 = 0.2832 | 1028.44
313 K, 31204 kPa, m1 = 0.2832 | 1032.59
313.75 K, 2275 kPa, m1 = 0.0906 | 1001.71
313.75 K, 12572 kPa, m1 = 0.0906 | 1006.16
313.75 K, 28596 kPa, m1 = 0.0906 | 1012.88
318.15 K, 101.33 kPa, m1 = 0.0906 | 998.97
318.15 K, 101.33 kPa, m1 = 0.2832 | 1017.22
318.15 K, 101.33 kPa, m1 = 0.6621 | 1052.27
318.15 K, 101.33 kPa, m1 = 1.605 | 1135.39
318.15 K, 101.33 kPa, m1 = 3.089 | 1255.57
328.15 K, 101.33 kPa, m1 = 0.0906 | 994.42
328.15 K, 101.33 kPa, m1 = 0.2832 | 1012.6
328.15 K, 101.33 kPa, m1 = 0.6621 | 1047.5
328.15 K, 101.33 kPa, m1 = 1.605 | 1130.28
328.15 K, 101.33 kPa, m1 = 3.089 | 1249.72
338.15 K, 101.33 kPa, m1 = 0.0906 | 989.22
338.15 K, 101.33 kPa, m1 = 0.2832 | 1007.35
338.15 K, 101.33 kPa, m1 = 0.6621 | 1042.13
338.15 K, 101.33 kPa, m1 = 1.605 | 1124.64
338.15 K, 101.33 kPa, m1 = 3.089 | 1243.52
348.15 K, 101.33 kPa, m1 = 0.0906 | 983.48
348.15 K, 101.33 kPa, m1 = 0.2832 | 1001.55
348.15 K, 101.33 kPa, m1 = 0.6621 | 1036.22
348.15 K, 101.33 kPa, m1 = 1.605 | 1118.49
348.15 K, 101.33 kPa, m1 = 3.089 | 1236.98
348.4 K, 2157 kPa, m1 = 0.6621 | 1037.06
348.4 K, 11670 kPa, m1 = 0.6621 | 1041.32
348.4 K, 23850 kPa, m1 = 0.6621 | 1046.48
348.4 K, 29910 kPa, m1 = 0.6621 | 1048.86
348.45 K, 3334 kPa, m1 = 0.2832 | 1002.87
348.45 K, 13808 kPa, m1 = 0.2832 | 1007.4
348.45 K, 22536 kPa, m1 = 0.2832 | 1011.08
348.45 K, 27851 kPa, m1 = 0.2832 | 1013.21
348.5 K, 3589 kPa, m1 = 1.605 | 1119.98
348.5 K, 10787 kPa, m1 = 1.605 | 1123.27
348.5 K, 21516 kPa, m1 = 1.605 | 1128.02
348.5 K, 27694 kPa, m1 = 1.605 | 1130.57
349.05 K, 2275 kPa, m1 = 0.0906 | 983.91
349.05 K, 7668 kPa, m1 = 0.0906 | 986.28
349.05 K, 16573 kPa, m1 = 0.0906 | 990.13
349.05 K, 21241 kPa, m1 = 0.0906 | 992.14
373.2 K, 6276 kPa, m1 = 3.089 | 1222.39
373.2 K, 17358 kPa, m1 = 3.089 | 1227.68
373.2 K, 24674 kPa, m1 = 3.089 | 1230.96
398.15 K, 3432 kPa, m1 = 0.0906 | 949.25
398.15 K, 5511 kPa, m1 = 0.6621 | 1002.67
398.15 K, 8728 kPa, m1 = 0.0906 | 951.87
398.15 K, 15593 kPa, m1 = 0.6621 | 1007.74
398.15 K, 16181 kPa, m1 = 0.0906 | 955.54
398.15 K, 22554 kPa, m1 = 0.6621 | 1011.13
398.15 K, 22710 kPa, m1 = 0.0906 | 958.45
398.15 K, 29087 kPa, m1 = 0.6621 | 1013.99
398.2 K, 2942 kPa, m1 = 1.605 | 1082.97
398.2 K, 10787 kPa, m1 = 1.605 | 1087.05
398.2 K, 21025 kPa, m1 = 1.605 | 1092.08
398.2 K, 28753 kPa, m1 = 1.605 | 1095.49
398.3 K, 3511 kPa, m1 = 0.2832 | 967.1
398.3 K, 11925 kPa, m1 = 0.2832 | 971.24
398.3 K, 21398 kPa, m1 = 0.2832 | 975.83
398.3 K, 30636 kPa, m1 = 0.2832 | 979.93
448.15 K, 4570 kPa, m1 = 3.089 | 1157.85
448.15 K, 4903 kPa, m1 = 0.2832 | 922.17
448.15 K, 14573 kPa, m1 = 3.089 | 1163.98
448.15 K, 15593 kPa, m1 = 0.2832 | 928.54
448.15 K, 22869 kPa, m1 = 3.089 | 1168.32
448.15 K, 24340 kPa, m1 = 0.2832 | 933.52
448.3 K, 3668 kPa, m1 = 0.0906 | 902.88
448.3 K, 7924 kPa, m1 = 0.0906 | 905.5
448.3 K, 15436 kPa, m1 = 0.0906 | 910.16
448.3 K, 21810 kPa, m1 = 0.0906 | 913.8
448.33 K, 4805 kPa, m1 = 0.6621 | 957.8
448.33 K, 15200 kPa, m1 = 0.6621 | 963.27
448.33 K, 24026 kPa, m1 = 0.6621 | 968.45
448.33 K, 28675 kPa, m1 = 0.6621 | 970.94
448.45 K, 3099 kPa, m1 = 1.605 | 1038.18
448.45 K, 10375 kPa, m1 = 1.605 | 1042.6
448.45 K, 25497 kPa, m1 = 1.605 | 1050.41
472.53 K, 8081 kPa, m1 = 0.2832 | 897.8
472.53 K, 16985 kPa, m1 = 0.2832 | 904
472.53 K, 23614 kPa, m1 = 0.2832 | 908.3
474.75 K, 6943 kPa, m1 = 1.605 | 1014.9
474.75 K, 13317 kPa, m1 = 1.605 | 1020.2
474.75 K, 24595 kPa, m1 = 1.605 | 1027
475 K, 6198 kPa, m1 = 0.6621 | 929.3
475 K, 15926 kPa, m1 = 0.6621 | 936.2
475 K, 24517 kPa, m1 = 0.6621 | 941.7
479.05 K, 7590 kPa, m1 = 3.089 | 1129.2
479.05 K, 16907 kPa, m1 = 3.089 | 1135.6
479.05 K, 21771 kPa, m1 = 3.089 | 1138.5
521.05 K, 7924 kPa, m1 = 0.6621 | 872.4
521.05 K, 11846 kPa, m1 = 0.6621 | 876.3
521.05 K, 18221 kPa, m1 = 0.6621 | 882.3
522.63 K, 9473 kPa, m1 = 0.2832 | 834.6
522.63 K, 21516 kPa, m1 = 0.2832 | 846.6
522.63 K, 27047 kPa, m1 = 0.2832 | 851.1
522.91 K, 8493 kPa, m1 = 1.605 | 961.6
522.91 K, 14867 kPa, m1 = 1.605 | 967.1
522.91 K, 20050 kPa, m1 = 1.605 | 971.2
523.15 K, 7178 kPa, m1 = 3.089 | 1079.91
523.15 K, 12415 kPa, m1 = 3.089 | 1084.49
523.15 K, 21810 kPa, m1 = 3.089 | 1091.96
572.75 K, 12415 kPa, m1 = 0.6621 | 795.1
572.75 K, 19201 kPa, m1 = 0.6621 | 806
572.75 K, 24419 kPa, m1 = 0.6621 | 813.4
573.15 K, 11591 kPa, m1 = 1.605 | 896.3
573.15 K, 16338 kPa, m1 = 1.605 | 902.6
573.15 K, 20672 kPa, m1 = 1.605 | 907.3
575.75 K, 15022 kPa, m1 = 0.2832 | 750.9
575.75 K, 19201 kPa, m1 = 0.2832 | 758.8
575.75 K, 24516 kPa, m1 = 0.2832 | 767.7
600.25 K, 12650 kPa, m1 = 3.089 | 1019.35
600.25 K, 18534 kPa, m1 = 3.089 | 1025.9
600.25 K, 22143 kPa, m1 = 3.089 | 1029.61
